The target in assay [1] is JAK-2 (Homo sapiens, UniProt O60674). The assay is described as follows: JAK-2 inhibition assay. In kind it is biochemical.
Assay [2] deals with T1, JAK-3 (Homo sapiens, UniProt P52333).
T1 sequence (P52333 1-1124): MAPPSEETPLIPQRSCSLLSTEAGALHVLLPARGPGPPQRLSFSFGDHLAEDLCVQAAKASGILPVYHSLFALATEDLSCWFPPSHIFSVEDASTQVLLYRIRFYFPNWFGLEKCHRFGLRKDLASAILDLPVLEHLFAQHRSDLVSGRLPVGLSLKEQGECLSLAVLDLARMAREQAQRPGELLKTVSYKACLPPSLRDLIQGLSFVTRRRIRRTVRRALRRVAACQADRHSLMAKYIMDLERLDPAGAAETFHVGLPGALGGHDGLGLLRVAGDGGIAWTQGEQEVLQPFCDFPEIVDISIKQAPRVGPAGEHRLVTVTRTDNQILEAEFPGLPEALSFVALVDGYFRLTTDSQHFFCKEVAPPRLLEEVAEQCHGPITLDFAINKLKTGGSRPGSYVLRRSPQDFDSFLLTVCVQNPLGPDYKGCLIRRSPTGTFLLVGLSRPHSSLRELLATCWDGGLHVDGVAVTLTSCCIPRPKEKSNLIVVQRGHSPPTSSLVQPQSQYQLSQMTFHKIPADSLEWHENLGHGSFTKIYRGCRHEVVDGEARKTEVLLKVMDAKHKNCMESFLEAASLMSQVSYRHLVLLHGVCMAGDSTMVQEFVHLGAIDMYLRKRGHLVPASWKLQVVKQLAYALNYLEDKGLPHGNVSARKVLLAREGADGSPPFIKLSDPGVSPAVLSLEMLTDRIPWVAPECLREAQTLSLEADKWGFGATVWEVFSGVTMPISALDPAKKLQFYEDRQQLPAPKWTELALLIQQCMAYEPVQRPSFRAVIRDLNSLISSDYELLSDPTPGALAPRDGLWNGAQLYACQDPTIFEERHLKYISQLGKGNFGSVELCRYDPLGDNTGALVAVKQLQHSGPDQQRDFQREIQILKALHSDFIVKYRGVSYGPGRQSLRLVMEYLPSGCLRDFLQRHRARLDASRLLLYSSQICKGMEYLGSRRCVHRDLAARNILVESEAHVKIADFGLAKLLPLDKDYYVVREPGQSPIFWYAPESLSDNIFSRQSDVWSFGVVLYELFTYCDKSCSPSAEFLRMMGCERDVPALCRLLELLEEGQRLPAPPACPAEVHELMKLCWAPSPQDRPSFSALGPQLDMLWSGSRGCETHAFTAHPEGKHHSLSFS
Kind of assay: JAK-3 inhibition assay. In kind it is biochemical. The procedure:
Compounds were screened for their ability to inhibit JAK using the assay shown below. Reactions were carried out in a kinase buffer containing 100 mM HEPES (pH 7.4), 1 mM DTT, 10 mM MgCl2, 25 mM NaCl, and 0.01% BSA.
Substrate concentrations in the assay were 5 μM ATP (200 μCi/μmole ATP) and 1 μM poly(Glu)4Tyr. Reactions were carried out at 25° C. and 1 nM JAK-3.
To each well of a 96 well polycarbonate plate was added 1.5 μL of a candidate JAK-3 inhibitor along with 50 μL of kinase buffer containing 2 μM poly(Glu)4Tyr and 10 μM ATP. This was then mixed and 50 μL of kinase buffer containing 2 nM JAK-3 enzyme was added to start the reaction. After 20 minutes at room temperature (25° C.), the reaction was stopped with 50 μL of 20% trichloroacetic acid (TCA) that also contained 0.4 mM ATP. The entire contents of each well were then transferred to a 96 well glass fiber filter plate using a TomTek Cell Harvester. After washing, 60 μL of scintillation fluid was added and ^33P incorporation detected on a Perkin Elmer TopCount. After removing the mean background values for all of the data points, the data were fit using Prism software to obtain a Ki value (app).

For 48 compounds, Ki results are on record in US8163732B2, “Tricyclic heteroaryl compounds useful as inhibitors of Janus kinase” (Vertex Pharmaceuticals Incorporated, priority 2005, dated 2012).

pKi: −log10 of the molar value.

Sequence of JAK-2 (O60674 whole entry): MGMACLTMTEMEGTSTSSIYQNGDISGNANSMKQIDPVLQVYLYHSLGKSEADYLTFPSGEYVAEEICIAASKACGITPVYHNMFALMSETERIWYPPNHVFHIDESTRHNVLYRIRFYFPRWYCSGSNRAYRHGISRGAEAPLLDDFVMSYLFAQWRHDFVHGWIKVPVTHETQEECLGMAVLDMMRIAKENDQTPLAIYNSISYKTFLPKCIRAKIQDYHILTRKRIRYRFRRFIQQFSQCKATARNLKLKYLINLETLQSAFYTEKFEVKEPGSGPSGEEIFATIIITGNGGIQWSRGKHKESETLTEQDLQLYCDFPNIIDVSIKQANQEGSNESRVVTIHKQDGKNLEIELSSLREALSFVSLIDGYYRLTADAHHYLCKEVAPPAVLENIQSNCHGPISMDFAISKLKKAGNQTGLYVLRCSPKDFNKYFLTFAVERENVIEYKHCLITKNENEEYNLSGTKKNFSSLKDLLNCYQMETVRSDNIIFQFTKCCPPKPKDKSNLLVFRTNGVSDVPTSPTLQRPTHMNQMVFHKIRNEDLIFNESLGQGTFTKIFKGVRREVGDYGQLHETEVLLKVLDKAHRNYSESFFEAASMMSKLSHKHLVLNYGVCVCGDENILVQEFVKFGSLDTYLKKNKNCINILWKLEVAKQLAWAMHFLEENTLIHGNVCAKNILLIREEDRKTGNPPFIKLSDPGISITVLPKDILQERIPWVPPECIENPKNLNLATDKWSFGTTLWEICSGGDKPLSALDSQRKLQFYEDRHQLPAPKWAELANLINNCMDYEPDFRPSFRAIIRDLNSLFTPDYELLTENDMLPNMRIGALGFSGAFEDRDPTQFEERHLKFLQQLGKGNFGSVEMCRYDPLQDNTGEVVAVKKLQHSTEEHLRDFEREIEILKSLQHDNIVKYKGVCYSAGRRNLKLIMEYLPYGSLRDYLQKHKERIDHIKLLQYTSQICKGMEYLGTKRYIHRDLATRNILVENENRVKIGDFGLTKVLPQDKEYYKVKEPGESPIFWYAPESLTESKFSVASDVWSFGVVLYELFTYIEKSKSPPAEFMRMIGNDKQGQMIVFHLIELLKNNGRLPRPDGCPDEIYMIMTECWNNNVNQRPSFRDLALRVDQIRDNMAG

For orientation: pKi means −log10 of the Ki, conventionally taken in molar units. Read a high pKi as a small Ki. As to `Clc1cccc(C2Nc3ccccc3-c3ccnc4[nH]cc2c34)c1` (stereo not drawn) [Compound 40], the pKi in assay [1] and in assay [2] was 5.60 to 6.60 throughout.
Consider `Clc1cccc(C2Nc3ccccc3-c3ccnc4[nH]cc2c34)c1Cl` (stereo not drawn) [Compound 41], for which the pKi in assay [1] is 5.60 to 6.60; in assay [2], less than 5.60.
In the case of `Clc1cccc(Cl)c1C1Nc2ccccc2-c2ccnc3[nH]cc1c23` (stereo not drawn) [Compound 42], the pKi in assay [1] and in assay [2] was 5.60 to 6.60 each time.
On to `c1ccc2c(c1)NC(c1ccncc1)c1c[nH]c3nccc-2c13` (stereo not drawn) [Compound 43], for which the values for the pKi in assay [1] and in assay [2] were 5.60 to 6.60 and less than 5.60, respectively.
Taken in the same sequence, the figures for `c1ccc2c(c1)N=C(c1ccncc1)c1c[nH]c3nccc-2c13` [Compound 44] were more than 6.60 and 5.60 to 6.60.
In the case of `COc1ccc(C2Nc3ccccc3-c3ccnc4[nH]cc2c34)cc1F` (stereo not drawn) [Compound 45], the values for the pKi in assay [1] and in assay [2] were more than 6.60 and 5.60 to 6.60, respectively.
On the same counts, the results for `Oc1ccc(C2Nc3ccccc3-c3ccnc4[nH]cc2c34)c(Cl)c1` (stereo not drawn) [Compound 46] are more than 6.60 and not below 6.60.
Turning to `Fc1cccc(F)c1C1Nc2ncccc2-c2ccnc3[nH]cc1c23` (stereo not drawn) [Compound 47], the pKi in assay [1] and in assay [2] was 5.60 to 6.60 throughout.
As to `Fc1cccc(C2Nc3ncccc3-c3ccnc4[nH]cc2c34)c1` (stereo not drawn) [Compound 48], the pKi in assay [1] and in assay [2] was 5.60 to 6.60 each time.
Take `Fc1cccc(F)c1C1Nc2ccccc2-c2ncnc3[nH]cc1c23` (stereo not drawn) [Compound 49]: the negative-log Ki (pKi) is more than 6.60 in assay [1] and 5.60 to 6.60 in assay [2].
With `Fc1cccc(C2Nc3ccccc3-c3ncnc4[nH]cc2c34)c1` (stereo not drawn) [Compound 50], the pKi in assay [1] was 5.60 to 6.60; in assay [2], less than 5.60.
On the same counts, the results for `CC1=Nc2ccccc2-c2ccnc3[nH]cc1c23` [Compound 51] are 5.60 to 6.60 and 5.60 to 6.60.
Taken in the same sequence, the figures for `Fc1cccc(F)c1C1Nc2ccccc2-c2c(Cl)cnc3[nH]cc1c23` (stereo not drawn) [Compound 52] were 5.60 to 6.60 and 5.60 to 6.60.
Taken in the same sequence, the figures for `Oc1ccc(C2Nc3ccccc3-c3c(Cl)cnc4[nH]cc2c34)c(Cl)c1` (stereo not drawn) [Compound 53] were more than 6.60 and not below 6.60.
For `Fc1ccc(F)c(C2Nc3ccccc3-c3c(Cl)cnc4[nH]cc2c34)c1F` (stereo not drawn) [Compound 54], the pKi in assay [1] is more than 6.60; in assay [2], 5.60 to 6.60.
Turning to `Oc1ccc(C2Nc3ccccc3-c3ncnc4[nH]cc2c34)c(Cl)c1` (stereo not drawn) [Compound 55], the pKi in assay [1] was more than 6.60; in assay [2] it was not below 6.60.
On the same counts, the results for `Fc1ccc(F)c(C2Nc3ccccc3-c3ncnc4[nH]cc2c34)c1F` (stereo not drawn) [Compound 56] are more than 6.60 and not below 6.60.
On the same counts, the results for `Oc1ccc(C2Nc3ncccc3-c3ccnc4[nH]cc2c34)c(Cl)c1` (stereo not drawn) [Compound 57] are more than 6.60 and not below 6.60.
On the same counts, the results for `OCCCCC1=Nc2ccccc2-c2ccnc3[nH]cc1c23` [Compound 58] are 5.60 to 6.60 and 5.60 to 6.60.
With `OCCCC1Nc2ccccc2-c2ccnc3[nH]cc1c23` (stereo not drawn) [Compound 60], the pKi in assay [1] is 5.60 to 6.60; in assay [2], less than 5.60.
On the same counts, the results for `Oc1ccc([C@H]2Nc3ccccc3-c3ccnc4[nH]cc2c34)c(Cl)c1` [Compound 62] are more than 6.60 and not below 6.60.
Taken in the same sequence, the figures for `Oc1ccc(C2=Nc3ccccc3-c3ccnc4[nH]cc2c34)c(Cl)c1` [Compound 63] were more than 6.60 and not below 6.60.
In the case of `COc1cc(C2Nc3ccccc3-c3ccnc4[nH]cc2c34)cc(O)c1O` (stereo not drawn) [Compound 64], the pKi was more than 6.60 in assay [1] and not below 6.60 in assay [2].
Taken in the same sequence, the figures for `Oc1ccc(C2Nc3ccccc3-c3ccnc4[nH]cc2c34)cc1O` (stereo not drawn) [Compound 66] were more than 6.60 and not below 6.60.
Taken in the same sequence, the figures for `Oc1c(Cl)cc(C2Nc3ccccc3-c3ccnc4[nH]cc2c34)cc1Cl` (stereo not drawn) [Compound 67] were more than 6.60 and not below 6.60.
Taken in the same sequence, the figures for `COc1cc(C2Nc3ccccc3-c3ccnc4[nH]cc2c34)cc(F)c1O` (stereo not drawn) [Compound 68] were more than 6.60 and not below 6.60.
For the compound `Oc1cccc(C2Nc3ccccc3-c3ccnc4[nH]cc2c34)c1O` (stereo not drawn) [Compound 69], the values for the pKi in assay [1] and in assay [2] were more than 6.60 and not below 6.60, respectively.
As for `COc1ccc(C2Nc3ccccc3-c3ccnc4[nH]cc2c34)c(Cl)c1O` (stereo not drawn) [Compound 70], the negative logarithm of the Ki (pKi) in assay [1] was more than 6.60; in assay [2], 5.60 to 6.60.
On to `O=[N+]([O-])c1cc(O)ccc1C1Nc2ccccc2-c2ccnc3[nH]cc1c23` (stereo not drawn) [Compound 71], for which the values for the pKi in assay [1] and in assay [2] were more than 6.60 and not below 6.60, respectively.
Taken in the same sequence, the figures for `Oc1ccc(O)c(C2Nc3ccccc3-c3ccnc4[nH]cc2c34)c1` (stereo not drawn) [Compound 72] were less than 5.60 and 5.60 to 6.60.
As to `COc1cc(C2Nc3ccccc3-c3ccnc4[nH]cc2c34)ccc1O` (stereo not drawn) [Compound 73], the negative logarithm of the Ki (pKi) in assay [1] was more than 6.60; in assay [2], not below 6.60.
For `Oc1ccc(C2Nc3ccccc3-c3ccnc4[nH]cc2c34)cc1Cl` (stereo not drawn) [Compound 74], the values for the pKi in assay [1] and in assay [2] were more than 6.60 and not below 6.60, respectively.
For `Oc1ccc(C2Nc3ccccc3-c3ccnc4[nH]cc2c34)cc1I` (stereo not drawn) [Compound 75], the pKi in assay [1] was more than 6.60; in assay [2], not below 6.60.
Taken in the same sequence, the figures for `COc1cc(C2Nc3ccccc3-c3ccnc4[nH]cc2c34)c(Br)cc1O` (stereo not drawn) [Compound 76] were more than 6.60 and not below 6.60.
For the compound `Oc1c(Br)cc(C2Nc3ccccc3-c3ccnc4[nH]cc2c34)cc1Br` (stereo not drawn) [Compound 78], the pKi in assay [1] and in assay [2] was 5.60 to 6.60 throughout.
As for `Cc1cc(C2Nc3ccccc3-c3ccnc4[nH]cc2c34)cc(C)c1O` (stereo not drawn) [Compound 79], the pKi in assay [1] and in assay [2] was 5.60 to 6.60 in each case.
For `Oc1ncc(C2Nc3ccccc3-c3ccnc4[nH]cc2c34)c(O)n1` (stereo not drawn) [Compound 80], the pKi in assay [1] and in assay [2] was less than 5.60 throughout.
Regarding `Oc1ccc(C2Nc3ccccc3-c3ncnc4[nH]cc2c34)cc1Cl` (stereo not drawn) [Compound 81], the pKi in assay [1] is more than 6.60; in assay [2], not below 6.60.
Taken in the same sequence, the figures for `Oc1ccc(C2Nc3ccccc3-c3ncnc4[nH]cc2c34)cc1Br` (stereo not drawn) [Compound 82] were more than 6.60 and not below 6.60.
On the same counts, the results for `Cc1cc(C2Nc3ccccc3-c3ncnc4[nH]cc2c34)ccc1O` (stereo not drawn) [Compound 83] are more than 6.60 and not below 6.60.
In the case of `COc1cc(C2Nc3ccccc3-c3ncnc4[nH]cc2c34)ccc1O` (stereo not drawn) [Compound 84], the pKi was more than 6.60 in assay [1] and not below 6.60 in assay [2].
For `COc1cc(C2Nc3ccccc3-c3ncnc4[nH]cc2c34)cc(OC)c1O` (stereo not drawn) [Compound 85], the pKi in assay [1] and in assay [2] was 5.60 to 6.60 in each case.
On to `O=[N+]([O-])c1ccc(C2Nc3ccccc3-c3ccnc4[nH]cc2c34)cc1` (stereo not drawn) [Compound 86], for which the pKi in assay [1] and in assay [2] was less than 5.60 each time.
Regarding `COC(=O)c1ccc(C2Nc3ccccc3-c3ccnc4[nH]cc2c34)cc1` (stereo not drawn) [Compound 87], the pKi in assay [1] and in assay [2] was less than 5.60 each time.
On to `O=C(OCc1ccccc1)N1CCC(C2Nc3ccccc3-c3ccnc4[nH]cc2c34)CC1` (stereo not drawn) [Compound 89], for which the pKi is 5.60 to 6.60 in assay [1] and less than 5.60 in assay [2].
Taken in the same sequence, the figures for `c1ccc2c(c1)NC(C1CCNCC1)c1c[nH]c3nccc-2c13` (stereo not drawn) [Compound 90] were 5.60 to 6.60 and 5.60 to 6.60.
For the compound `Nc1ccc(C2Nc3ccccc3-c3ccnc4[nH]cc2c34)cc1` (stereo not drawn) [Compound 93], the pKi in assay [1] is more than 6.60; in assay [2], not below 6.60.
On the same counts, the results for `Nc1ccc(C2=Nc3ccccc3-c3ccnc4[nH]cc2c34)cc1` [Compound 94] are more than 6.60 and not below 6.60.
